# Test results reported in patent US11535643B2, “Macrolides with modified desosamine sugars and uses thereof” (President and Fellows of Harvard College, priority 2015, dated 2022).
# Legend:
# Format in all cases: cell-based
# S. pyogenes = test: Broth dilution MIC determination (CLSI) against S. pyogenes strains
# Outline: (§1)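 Following CLSI procedures, broth dilution is used to find the MIC for each strain. Controls: azithromycin and solithromycin.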
# E. faecalis = test: Broth dilution MIC determination (CLSI) against E. faecalis strains
# Outline: as §1
# P. aeruginosa = test: Broth dilution MIC determination (CLSI) against P. aeruginosa strains
# Outline: as §1
# S. pneumoniae = test: Broth dilution MIC determination (CLSI) against S. pneumoniae strains
# Outline: as §1
# A. baumannii = test: Broth dilution MIC determination (CLSI) against A. baumannii strains
# Outline: as §1
# S. aureus = test: Broth dilution MIC determination (CLSI) against S. aureus strains
# Outline: as §1
# E. coli = test: Broth dilution MIC determination (CLSI) against E. coli strains
# Outline: as §1
# K. pneumoniae = test: Broth dilution MIC determination (CLSI) against K. pneumoniae strains
# Outline: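 Azithromycin and solithromycin served as controls; MICs were obtained by standard CLSI broth dilution on a strain panel including multidrug-resistant and macrolide-resistant isolates.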
smiles,measurement,setting,value
CCC1OC(=O)C(C)C(=O)C(C)C(OC2OC(C)CC(n3ccnc3)C2O)C(C)(OC)CC(C)CNC(C)C2N(CCCCn3cc(-c4cccc(N)c4)nn3)C(=O)OC12C (stereo not drawn) [FSM-120394],MIC S. pyogenes ATCC19615,"S. pyogenes; ATCC19615, Strain No. MP-19",0.5 µg/mL
same,MIC S. pyogenes mac resistant,"S. pyogenes; mac resistant, Strain No. MP-625 UNT-014",4 µg/mL
same,MIC E. faecalis ATCC29212,"E. faecalis; ATCC29212, Strain No. MP-24",4 µg/mL
same,MIC E. faecalis van resistant,"E. faecalis; van resistant, Strain No. UNT-039",>64 µg/mL
same,MIC P. aeruginosa ATCC27853,"P. aeruginosa; ATCC27853, Strain No. MP-3",>64 µg/mL
same,MIC P. aeruginosa PAO1,"P. aeruginosa; PAO1, Strain No. MP-7",>64 µg/mL
same,MIC P. aeruginosa PAO1:mex,"P. aeruginosa; PAO1:mex, Strain No. MP-8",>64 µg/mL
same,MIC S. pneumoniae ATCC49619,"S. pneumoniae; ATCC49619, Strain No. MP-21",0.5 µg/mL
same,MIC S. pneumoniae mefA,S. pneumoniae; Strain No. MP-626 UNT-038,0.5 µg/mL
same,MIC S. pneumoniae mefA,S. pneumoniae; Strain No. MP-627 UNT-039,0.25 µg/mL
same,MIC A. baumannii ATCC19606,"A. baumannii; ATCC19606, Strain No. MP-15",64 µg/mL
same,MIC A. baumannii clinical,A. baumannii; Strain No. MP576,>64 µg/mL
same,MIC A. baumannii clinical,A. baumannii; Strain No. MP577,>64 µg/mL
same,MIC S. aureus ATCC29213,"S. aureus; ATCC29213, Strain No. MP-12",>64 µg/mL
same,MIC S. aureus ATCCBAA-977,"S. aureus; ATCCBAA-977, Strain No. MP-17",>64 µg/mL
same,MIC S. aureus (MRSA) GISA USA600,"S. aureus; GISA USA600, Strain No. MP-619 UNT-120",>64 µg/mL
same,MIC S. aureus (MRSA) ST-228 cErm,"S. aureus; ST-228 cErm, Strain No. MP-513",>64 µg/mL
same,MIC S. aureus (MRSA) USA100,"S. aureus; USA100, Strain No. MP-618 UNT-096",>64 µg/mL
same,MIC S. aureus (MRSA) USA300,"S. aureus; USA300, Strain No. MP-549",>64 µg/mL
same,MIC S. aureus (MRSA) ermA phenotype,"S. aureus; ermA phenotype, Strain No. MP-620 UNT-146",>64 µg/mL
same,MIC E. coli ATCC25922,"E. coli; ATCC25922, Strain No. MP-4",>64 µg/mL
same,MIC E. coli ATCC25922:tolC,"E. coli; ATCC25922:tolC, Strain No. MP-9",16 µg/mL
same,MIC E. coli clinical,"E. coli; clinical, Strain No. MP541",>64 µg/mL
same,MIC E. coli clinical-cErm,"E. coli; clinical-cErm, Strain No. MP532",>64 µg/mL
same,MIC K. pneumoniae ATCC10031,"K. pneumoniae; ATCC10031, Strain No. MP-14",16 µg/mL
same,MIC K. pneumoniae clinical,K. pneumoniae; Strain No. MP546,>64 µg/mL
same,MIC K. pneumoniae clinical,K. pneumoniae; Strain No. MP548,>64 µg/mL
